ChEMBL document CHEMBL1128808, “Dioxolane cytosine nucleosides as anti-hepatitis B agents” (Bioorg Med Chem Lett, 1995)

What was measured:
[1] = test system: CCRF-CEM; assay: Compound was evaluated for cytotoxicity by inhibition of mitochondrial DNA synthesis; type: functional, cell-based; details: Homo sapiens
[2] = test system: CCRF-CEM; assay: Cytotoxicity in H1 CEM cells; type: functional, cell-based; details: Homo sapiens
[3] = test system: Hepatoma cell line; assay: Antiviral activity against hepatitis B virus in human hepatoma cell line (2.2.15 cells); type: functional, cell-based
[4] = Selectivity measured as the ratio between IC50 value and EC50 value; type: functional

**Q.** Which results are given for `Nc1ccn([C@@H]2CO[C@H](CO)O2)c(=O)n1` [TROXACITABINE]?
**A.** IC50 [1]: > 1 µM; IC50 [2]: 0.056 µM; EC50 [3]: 0.0005 µM

**Q.** With `Nc1ccn([C@@H]2CO[C@@H](CO)O2)c(=O)n1` as the compound, how does the EC50 [3] read?
**A.** 5 µM

**Q.** Which results are given for `Nc1ccn([C@@H]2CS[C@H](CO)O2)c(=O)n1` [LAMIVUDINE]?
**A.** IC50 [1]: 50 µM; IC50 [2]: 50 µM; EC50 [3]: 0.01 µM

**Q.** With `Nc1ccn([C@H]2CO[C@@H](CO)O2)c(=O)n1` as the compound, how does the IC50 [1] read?
**A.** > 10 µM

**Q.** What about the IC50 [2] of the same compound?
**A.** 2.4 µM

**Q.** And the EC50 [3]?
**A.** 0.01 µM

**Q.** What about the Selectivity [4] of the same compound?
**A.** 240

**Q.** With `O=c1[nH]c(=O)n([C@H]2CO[C@@H](CO)O2)cc1F` as the compound, how does the EC50 [3] read?
**A.** > 5 µM

**Q.** For `O=c1[nH]c(=O)n([C@H]2CO[C@@H](CO)O2)cc1Br`, which EC50 [3] is on record?
**A.** > 5 µM

**Q.** For `O=c1ccn([C@H]2CO[C@@H](CO)O2)c(=O)[nH]1`, which EC50 [3] is on record?
**A.** > 20 µM

**Q.** Which IC50 [1] does the source give for `Nc1ccn([C@H]2CO[C@H](CO)O2)c(=O)n1` here?
**A.** > 50 µM

**Q.** What about the IC50 [2] of the same compound?
**A.** > 50 µM

**Q.** And the EC50 [3]?
**A.** > 5 µM
